Reference: patent US11690810B2, “Combination treatment of bacterial infection” (The Chinese University of Hong Kong, priority 2018, dated 2023)
Like-named read-outs stand apart in the source and are kept apart here.

Assays:
[1] = system: S. aureus SA-APH2″-AAC6′ (APH2), resistant to gentamicin; test: MIC and checkerboard (FIC) assay; conditions: for MIC / MIC90 / MIC99: Staphylococcus aureus; for MIC99: read-out: MIC 99.9
[2] = system: S. aureus SA-APH3′ (APH3), resistant to kanamycin; test: MIC and checkerboard (FIC) assay; conditions: Staphylococcus aureus; for MIC99: read-out: MIC 99.9
[3] = system: S. aureus SA-RN4220-pUL5054 (RN4220); test: MIC and checkerboard (FIC) assay; conditions: Staphylococcus aureus; for MIC99: read-out: MIC 99.9
[4] = system: S. aureus SA-1199B (NorA efflux pump overexpressed); test: MIC and checkerboard (FIC) assay; conditions: for MIC / MIC90 / MIC99: Staphylococcus aureus; for MIC99: read-out: MIC 99.9
MRSA SA-ST239 = test: MIC and checkerboard (FIC) assay; conditions: for MIC / MIC90 / MIC99: Staphylococcus aureus, MRSA; for MIC99: read-out: MIC 99.9
CA-MRSA strain ST30 = test: MIC and checkerboard (FIC) assay; type: cell-based, Staphylococcus aureus; conditions: Staphylococcus aureus, MRSA, ST30
[5] = system: S. aureus SA-ANT4′ (ANT4), resistant to fusidic acid; test: MIC and checkerboard (FIC) assay; conditions: for MIC / MIC90 / MIC99: Staphylococcus aureus; for MIC99: read-out: MIC 99.9
[6] = system: bacterial aggregation of MRSA JE-2; test: Aggregation assay of MRSA JE-2; type: cell-based, Staphylococcus aureus; conditions: JE-2; varying concentrations
[7] = system: panel of laboratory MRSA strains; test: MIC and combination tests, panel of laboratory strains; conditions: tanshinone highest tested concentration 128 μg/ml
[8] = system: internalization of MRSA strain JE-2 by HaCat keratinocytes; test: Internalization of S. aureus by HaCaT keratinocytes; type: cell-based, Staphylococcus aureus
[9] = system: adherence of MRSA strain JE-2 to HaCat keratinocytes; test: Bacterial adherence to HaCaT keratinocytes; type: cell-based, Staphylococcus aureus; conditions: varying concentrations of baicalein
[10] = system: adherence of MRSA strain JE-2 to fibrinogen; test: Fibrinogen-binding adherence assay (crystal violet); type: cell-based, Staphylococcus aureus; conditions: varying concentrations
[11] = system: S. aureus ATCC25923 (methicillin sensitive); test: MIC and checkerboard (FIC) assay; conditions: Staphylococcus aureus; for MIC90: ATCC25923; for MIC99: ATCC25923, read-out: MIC 99.9
[12] = system: NorA overexpressed S. aureus; conditions: NorA overexpressed S. aureus, cited from earlier work
[13] = system: clinical fusidic acid resistant MRSA strain 73621; test: MIC and checkerboard (FIC) assay; type: cell-based, Staphylococcus aureus
[14] = system: clinical fusidic acid resistant MRSA strain 96591; test: MIC and checkerboard (FIC) assay; type: cell-based, Staphylococcus aureus
[15] = system: clinical fusidic acid resistant MRSA strain 82356; test: MIC and checkerboard (FIC) assay; type: cell-based, Staphylococcus aureus
[16] = read-out: Minimum inhibitory concentration to compound (MIC)
[17] = read-out: Activity (MIC, μg/ml)

| SMILES | activity against the tested MRSA strains when used alone [7] | MIC90 [1] | MIC99 [1] | MIC90 [2] | MIC99 [2] | MIC90 [3] | MIC99 [3] | MIC90 [4] | MIC99 [4] | MIC90 (MRSA SA-ST239) | MIC99 (MRSA SA-ST239) | MIC90 [11] | MIC99 [11] | MIC90 [5] | MIC99 [5] | further results |
| --- | --- | --- | --- | --- | --- | --- | --- | --- | --- | --- | --- | --- | --- | --- | --- | --- |
| C=C(C)C(CC=C(C)C)Cc1c(O)cc(OC)c(C(=O)/C=C/c2ccc(O)cc2OC)c1O (racemic) [WQD-164, (E)-1-(2,4-dihydroxy-6-methoxy-3-(5-methyl-2-(prop-1-en-2-yl)hex-4-en-1-yl)phenyl)-3-(4-hydroxy-2-methoxyphenyl)prop-2-en-1-one] | – | – | – | – | – | – | – | – | – | – | – | – | – | – | – | FIC ([1]; APH2″-AAC6′, ECG with WQD-164): 0.50; MIC combine ([1]; APH2″-AAC6′, ECG with WQD-164): 8 µg/mL; MIC ([1]; read-out: MIC alone): 16 µg/mL; MIC [1, 16]: 16 µg/mL; MIC [2, 16]: 32 µg/mL; MIC [3, 16]: 64 µg/mL; MIC ([4]; read-out: Minimum inhibitory concentration to compound (MIC), 1199B′, Table 8): 64 µg/mL; FIC (MRSA SA-ST239; ST239, ECG with WQD-164): 0.50; MIC combine (MRSA SA-ST239; ST239, ECG with WQD-164): 4 µg/mL; MIC (MRSA SA-ST239; [17]): 32 µg/mL; MIC (MRSA SA-ST239; read-out: MIC alone): 32 µg/mL; MIC (CA-MRSA strain ST30; Table 8, read-out: Minimum inhibitory concentration to compound (MIC)): 128 µg/mL; MIC (CA-MRSA strain ST30; [17]): 128 µg/mL; MIC [5, 16]: 32 µg/mL |
| O=c1cc(-c2ccccc2)oc2cc(O)c(O)c(O)c12 [Baicalein, 5,6,7-trihydroxyflavone] | relatively weak | 128 µg/mL | > 512 µg/mL | 64 µg/mL | > 512 µg/mL | 64 µg/mL | > 512 µg/mL | 128 µg/mL | > 512 µg/mL | 128 µg/mL | > 512 µg/mL | 128 µg/mL | > 512 µg/mL | 128 µg/mL | > 512 µg/mL | bacterial aggregation [6]: reduced; FIC ([4]; 1199B, Baicalein with ECG): 0.0625; MIC combine ([4]; 1199B, Baicalein with ECG): 8 µg/mL; MIC ([4]; read-out: MIC alone, 1199B, Baicalein and ECG section): 512 µg/mL; decrease in the internalization as compared to the WT strain ([8]; 4 μg/ml (baicalein)): 2.7 fold; internalization lower as compared to the mutant ΔSrtA ([8]; 64 μg/ml of baicalein): 1.9 fold; reduction in internalization as compared to the WT strain ([8]; 64 μg/ml of baicalein): 5 fold; average decrease in the adherence of the WT strain to HaCaT cells [9]: 3.5 fold; fibrinogen-binding adherence [10]: minimal reduction in adherence |
| COc1ccc2cc3[n+](cc2c1OC)CCc1cc2c(cc1-3)OCO2 [Berberine] | relatively weak | 256 µg/mL | > 512 µg/mL | 128 µg/mL | > 512 µg/mL | 256 µg/mL | > 512 µg/mL | 256 µg/mL | > 512 µg/mL | 256 µg/mL | > 512 µg/mL | 256 µg/mL | > 512 µg/mL | 256 µg/mL | > 512 µg/mL | bacterial aggregation [6]: reduced; antimicrobial action (MIC) potentiated ([12]; with multidrug pump inhibitor 5′-methoxyhydnocarpin): 2 µg/mL; antimicrobial action (MIC) alone ([12]; without pump inhibitor): 32 µg/mL; fibrinogen-binding adherence [10]: dose-dependent reduction of adherence |
| C=C(C)C(CC=C(C)C)Cc1c(OC)cc(OC)c(C(=O)/C=C/c2ccc(OCOC)cc2OCOC)c1OC (stereo not drawn) [Compound A] | – | – | – | – | – | – | – | – | – | – | – | – | – | – | – | MIC [3, 17]: > 256 µg/mL |
| C=C(C)C(CC=C(C)C)Cc1c(OC)cc(OC)c(C(=O)/C=C/c2ccc(O)cc2O)c1OC (stereo not drawn) [Compound B] | – | – | – | – | – | – | – | – | – | – | – | – | – | – | – | MIC [3, 17]: 64 µg/mL |
| CC(=O)O[C@H]1C[C@@]2(C)[C@@H](C[C@@H](O)[C@H]3[C@@]4(C)CC[C@@H](O)[C@@H](C)[C@@H]4CC[C@@]32C)/C1=C(\CCC=C(C)C)C(=O)O [Fusidic acid, fusidic acid, reference compound] | – | – | – | – | – | – | – | – | – | – | – | – | – | – | – | FIC ([13]; 73621, ECG+Kur+Fus): 0.03; MIC combine ([13]; 73621, ECG+Kur+Fus): 1 µg/mL; MIC ([13]; Staphylococcus aureus, MRSA, 73621 (fusidic acid resistant), read-out: MIC alone): 32 µg/mL; FIC ([14]; 96591, ECG+Kur+Fus): 0.03; MIC combine ([14]; 96591, ECG+Kur+Fus): 1 µg/mL; MIC ([14]; Staphylococcus aureus, MRSA, 96591 (fusidic acid resistant), read-out: MIC alone): 32 µg/mL; FIC ([5]; ANT4, ECG+Kur+Fus): 0.125; MIC combine ([5]; ANT4, ECG+Kur+Fus): 4 µg/mL; MIC combine ([5]; ANT4, ECG+Kur+Fus, listed as Fus): 8 µg/mL; MIC ([5]; read-out: MIC alone): 64 µg/mL; FIC ([15]; 82356, ECG+Kur+Fus): 0.03; MIC combine ([15]; 82356, ECG+Kur+Fus): 1 µg/mL; MIC ([15]; Staphylococcus aureus, MRSA, 82356 (fusidic acid resistant), read-out: MIC alone): 32 µg/mL |
| O=C(O)c1cc(O)c(O)c(O)c1 [Gallic acid, 3,4,5-trihydroxybenzoic acid] | relatively weak | 512 µg/mL | > 512 µg/mL | 512 µg/mL | > 512 µg/mL | 512 µg/mL | > 512 µg/mL | 512 µg/mL | > 512 µg/mL | 256 µg/mL | > 512 µg/mL | 256 µg/mL | > 512 µg/mL | 512 µg/mL | > 512 µg/mL | – |
